From the supplement of paper PMC13380429

Columns and labels:
Conditions in all cases: 72 h
[1] = tested on: HepG2; assay: relative viability EC50 (midpoint between 100% and the lowest measured viability); higher = less toxic
[2] = tested on: Calu-3; assay: as above
[3] = tested on: U2OS; assay: as above
[4] = tested on: Vero E6; assay: as above
[5] = tested on: Caco-2; assay: as above
[6] = tested on: HepG2; assay: drug sensitivity score (DSS) for viability; higher = more toxic; extreme values may be limits of the assay
[7] = tested on: Calu-3; assay: as above
[8] = tested on: U2OS; assay: as above
[9] = tested on: Vero E6; assay: as above
[10] = tested on: Caco-2; assay: as above
[11] = tested on: HepG2; assay: cell viability relative to DMSO; higher = less toxic
[12] = tested on: Calu-3; assay: as above
[13] = tested on: U2OS; assay: as above
[14] = tested on: Vero E6; assay: as above
[15] = tested on: Caco-2; assay: as above

| Structure (SMILES) | relative viability EC50 [1] | relative viability EC50 [2] | relative viability EC50 [3] | relative viability EC50 [4] | relative viability EC50 [5] | drug sensitivity score [6] | drug sensitivity score [7] | drug sensitivity score [8] | drug sensitivity score [9] | drug sensitivity score [10] | cell viability ([11]; 1 nM) | cell viability ([11]; 10 nM) | cell viability ([11]; 100 nM) | cell viability ([11]; 1000 nM) | cell viability ([11]; 10000 nM) | cell viability ([12]; 1 nM) | cell viability ([12]; 10 nM) | cell viability ([12]; 100 nM) | cell viability ([12]; 1000 nM) | cell viability ([12]; 10000 nM) | cell viability ([13]; 1 nM) | cell viability ([13]; 10 nM) | cell viability ([13]; 100 nM) | cell viability ([13]; 1000 nM) | cell viability ([13]; 10000 nM) | cell viability ([14]; 1 nM) | cell viability ([14]; 10 nM) | cell viability ([14]; 100 nM) | cell viability ([14]; 1000 nM) | cell viability ([14]; 10000 nM) | cell viability ([15]; 1 nM) | cell viability ([15]; 10 nM) | cell viability ([15]; 100 nM) | cell viability ([15]; 1000 nM) | cell viability ([15]; 10000 nM) |
| --- | --- | --- | --- | --- | --- | --- | --- | --- | --- | --- | --- | --- | --- | --- | --- | --- | --- | --- | --- | --- | --- | --- | --- | --- | --- | --- | --- | --- | --- | --- | --- | --- | --- | --- | --- |
| CC(C)(C)C(=O)/C(=N/c1ccc(Cl)cc1)NNc1ccc(Cl)cc1 | > 10 µM | > 10 µM | > 10 µM | > 10 µM | > 10 µM | 0 | 0 | 0 | 0 | 0 | 105% | 95% | 95.5% | 95.3% | 97.6% | 97.8% | 107% | 98.8% | 98.6% | 102% | 96.7% | 107% | 102% | 103% | 94% | 97.5% | 99.3% | 102% | 97.2% | 107% | 82.3% | 91.6% | 91.4% | 96.6% | 83.9% |
| CC(C)NC(=O)c1ccc(C#Cc2ccncc2)cn1 | > 10 µM | > 10 µM | > 10 µM | > 10 µM | > 10 µM | 0 | 0 | 0 | 0 | 0 | 104% | 102% | 98.1% | 96.7% | 98.1% | 90.1% | 95.8% | 99.9% | 99% | 114% | 95.1% | 98.3% | 97.1% | 104% | 102% | 100% | 96.1% | 92.2% | 94.5% | 101% | 101% | 90.3% | 99.1% | 92.4% | 95.4% |
| COc1cc(C(=O)NCC2(N(C)C)CCCC2)cc(OC)c1OCc1ccccc1 | > 10 µM | > 10 µM | > 10 µM | > 10 µM | > 10 µM | 0.3 | 0.1 | 0 | 0 | 0 | 97.3% | 106% | 101% | 88.8% | 89.6% | 94.3% | 92.1% | 96.7% | 103% | 85.8% | 100% | 104% | 97% | 104% | 95.9% | 104% | 99.9% | 107% | 99.4% | 95.8% | 95.5% | 98.1% | 103% | 97.3% | 93.5% |
| C[C@H](NC[C@H](O)CP(=O)(O)Cc1ccccc1)c1ccc(Cl)c(Cl)c1 | > 10 µM | > 10 µM | > 10 µM | > 10 µM | > 10 µM | 0 | 0 | 0 | 0 | 0 | 96.9% | 92.4% | 94.8% | 80.1% | 95% | 102% | 107% | 95.3% | 100% | 106% | 96.5% | 101% | 94.6% | 97.9% | 94.3% | 99.4% | 96.8% | 98.1% | 94.8% | 98.1% | 104% | 100% | 95.9% | 99.5% | 89.8% |
| Cc1nc2ccc(NC(=O)Nc3ccnc4cccnc34)cc2o1 | > 10 µM | > 10 µM | > 10 µM | > 10 µM | > 10 µM | 0.8 | 0 | 0 | 0 | 1.6 | 98.9% | 102% | 94.7% | 92.8% | 80.7% | 102% | 103% | 94.5% | 92.7% | 90.3% | 101% | 93% | 99.3% | 96.4% | 96.4% | 97.6% | 98.8% | 90.9% | 102% | 93.2% | 94.9% | 92.2% | 98% | 89.6% | 76.1% |
| Nc1nc2c(cnn2CCc2ccccc2)c2nc(-c3ccco3)nn12 | 0.354 µM | > 10 µM | > 10 µM | > 10 µM | – | 14.9 | 0 | 0 | 0 | 4.1 | 97.7% | 101% | 90.9% | 25.5% | 12.7% | 88.2% | 100% | 95.7% | 113% | 90.7% | 98% | 99.8% | 92.7% | 98.6% | 100% | 107% | 99.8% | 98.2% | 99.6% | 96.1% | 96.7% | 104% | 93.5% | 78.3% | 67.5% |
| O=C1NC(=O)c2cc(Nc3ccc(F)cc3)c(Nc3ccc(F)cc3)cc21 | 1.91 µM | > 10 µM | > 10 µM | > 10 µM | – | 4 | 0.5 | 0 | 0 | 2.2 | 101% | 93.9% | 101% | 91.8% | 49.7% | 106% | 106% | 94.7% | 106% | 77.8% | 95% | 100% | 97.2% | 101% | 87.9% | 96.9% | 97.1% | 99.9% | 93.5% | 103% | 93.9% | 88.6% | 95.2% | 93.3% | 70.2% |
| c1ccc(N2CCN(CCCOc3ccc4c(c3)OCO4)CC2)cc1 [BP-554] | > 10 µM | > 10 µM | – | > 10 µM | > 10 µM | 0 | 0 | – | 0 | 0 | 107% | 93.1% | 95.3% | 102% | 103% | 101% | 107% | 99.5% | 103% | 110% | – | – | – | – | – | 94.5% | 94.6% | 94.7% | 96.2% | 96% | 107% | 102% | 101% | 105% | 98.7% |
| CC(=O)Oc1ccccc1C(=O)Oc1cccc(CO[N+](=O)[O-])c1 [NO-ASA] | > 10 µM | > 10 µM | > 10 µM | > 10 µM | – | 1.7 | 0 | 0 | 0 | – | 95.4% | 104% | 100% | 88.9% | 79.9% | 96.3% | 101% | 98.9% | 103% | 107% | 98% | 98.5% | 99.4% | 101% | 93.1% | 102% | 108% | 101% | 89.7% | 105% | – | – | – | – | – |
| CC(C)c1nc(CN(C)C(=O)N[C@H](C(=O)N[C@@H](Cc2ccccc2)C[C@H](O)[C@H](Cc2ccccc2)NC(=O)OCc2cncs2)C(C)C)cs1 [Ritonavir] | > 10 µM | > 10 µM | > 10 µM | > 10 µM | > 10 µM | 0 | 0.1 | 0 | 0 | 1.2 | 103% | 93.9% | 97.2% | 96.8% | 93.8% | 97.4% | 89.1% | 94.9% | 103% | 86.3% | 93.7% | 97.8% | 100% | 99.2% | 96.4% | – | – | – | – | – | 99.9% | 90.5% | 94.4% | 96.9% | 77.6% |
| CCOc1ccc(NC(=S)N2CCC(C(O)(c3ccccc3)c3ccccc3)CC2)cc1 [SF-11] | > 10 µM | > 10 µM | > 10 µM | > 10 µM | – | 0 | 0 | 0 | 0 | – | 99.5% | 100% | 103% | 109% | 91.7% | 100% | 107% | 96.7% | 104% | 96.5% | 101% | 96.6% | 98.4% | 98.2% | 100% | 101% | 99.9% | 98.4% | 99.8% | 102% | – | – | – | – | – |
| O=C(Nc1cc(-c2ccccc2)nn1-c1ccccc1F)c1ccc([N+](=O)[O-])cc1 [VU1545] | > 10 µM | > 10 µM | – | > 10 µM | – | 0 | 0 | – | 0 | – | 107% | 83.9% | 104% | 89.6% | 97.5% | 101% | 97.7% | 92.9% | 98% | 87.5% | – | – | – | – | – | 111% | 105% | 107% | 108% | 99.9% | – | – | – | – | – |
| CN(C)N(C)C(=O)[C@@]1(Cc2ccccc2)CCCN(C(=O)[C@@H](Cc2c[nH]c3ccccc23)NC(=O)C(C)(C)N)C1 [anamorelin] | > 10 µM | > 10 µM | > 10 µM | > 10 µM | – | 0 | 0 | 0 | 0 | – | 113% | 99.6% | 106% | 102% | 103% | 85.1% | 86.9% | 91.7% | 94.4% | 89.8% | 103% | 100% | 104% | 102% | 99.5% | 103% | 107% | 101% | 104% | 95.4% | – | – | – | – | – |
| Oc1cc2c(cc1O)CN(C(=S)NCCc1ccc(Cl)cc1)CCC2 [capsazepine] | > 10 µM | > 10 µM | > 10 µM | > 10 µM | – | 0.1 | 0 | 0 | 0 | 2.5 | 103% | 114% | 107% | 100% | 86.9% | 107% | 103% | 110% | 104% | 92.6% | 98.2% | 103% | 97.3% | 101% | 97.7% | 101% | 101% | 101% | 92.2% | 98.8% | 90.9% | 98.4% | 91.2% | 90.2% | 65.8% |
